Tests used:
[1] = Dry Sympatec PSD analysis (particle size distribution); type: physicochemical; conditions: after isolation
Excerpt: Particle size or particle diameter as used herein can be suitably determined by laser diffraction based methods, for example as described in ISO Standard 13320-1. Laser diffraction particle sizing apparatus such as the Malvern Mastersizer 2000™ can be used.

[2] = Effect of humidity on prolonged storage: 20% relative humidity for 48 hours; DVS, DSC, TGA, PSD, SEM; type: physicochemical; conditions: for DVS mass plot, change of mass during storage: 20% RH, 48 hours; for Particle Size, cumulative distribution Q3 X10, post-storage sample / Particle Size, cumulative distribution Q3 X50, post-storage sample / Particle Size, cumulative distribution Q3 X90, post-storage sample: dry Sympatec PSD
Protocol: In order to evaluate the effect of humidity on prolonged storage, processed BDP heptane solvate was subjected to 20% relative humidity (RH) for 48 hours.
The sample recovered after storage was analysed by DSC, TGA, PSD and SEM.
In order to evaluate the effect of humidity on prolonged storage processed BDP hydrate was subjected to 20% relative humidity (RH) for 48 hours.

SMILES	Particle Size, cumulative distribution Q3 X10 [1]	Particle Size, cumulative distribution Q3 X50 [1]	Particle Size, cumulative distribution Q3 X90 [1]	Particle size distribution, result in words [1]	Time to steady state of sample mass (DVS) ([2]; 20% RH storage)	DVS mass plot, change of mass during storage [2]	DSC trace of stored sample, thermal behaviour post-humidity treatment ([2]; after 20% RH for 48 hours)	PSD variation of particle size after storage ([2]; after 20% RH for 48 hours)	Particle Size, cumulative distribution Q3 X10, post-storage sample ([2]; after 20% RH for 48 hours)	Particle Size, cumulative distribution Q3 X50, post-storage sample ([2]; after 20% RH for 48 hours)	Particle Size, cumulative distribution Q3 X90, post-storage sample ([2]; after 20% RH for 48 hours)	DVS mass plot, change of mass during storage ([2]; listed as processed BDP heptane)	DSC trace of stored sample, thermal behaviour post-humidity treatment ([2]; after 20% RH for 48 hours, listed as BDP heptane solvate)
CCC(=O)OCC(=O)[C@@]1(OC(=O)CC)[C@@H](C)C[C@H]2[C@@H]3CCC4=CC(=O)C=C[C@]4(C)[C@@]3(Cl)[C@@H](O)C[C@@]21C.O [Comparative Example 1, beclomethasone diproprionate, reference compound]	0.84 μ	3.58 μ	8.76 μ	mostly ˜4 μm particles alongside larger clusters or agglomerates larger than 20 μm									
CCC(=O)OCC(=O)[C@@]1(OC(=O)CC)[C@@H](C)C[C@H]2[C@@H]3CCC4=CC(=O)C=C[C@]4(C)[C@@]3(Cl)[C@@H](O)C[C@@]21C.O [Comparative Example 2, beclomethasone diproprionate, reference compound]	1.78 μ	8.10 μ	15.10 μ										
CCC(=O)OCC(=O)[C@@]1(OC(=O)CC)[C@@H](C)C[C@H]2[C@@H]3CCC4=CC(=O)C=C[C@]4(C)[C@@]3(Cl)[C@@H](O)C[C@@]21C.O [Example 3, beclomethasone diproprionate]	0.51 μ	1.35 μ	3.17 μ	well within the inhalation range	about 1500 minutes	initially underwent considerable weight loss due to partial dehydration	no variation in the thermal behavior	no significant variation of particle size	0.51 μ	1.37 μ	2.95 μ		
CCC(=O)OCC(=O)[C@@]1(OC(=O)CC)[C@@H](C)C[C@H]2[C@@H]3CCC4=CC(=O)C=C[C@]4(C)[C@@]3(Cl)[C@@H](O)C[C@@]21C.O [Example 1, beclomethasone diproprionate]	0.69 μ	2.41 μ	4.67 μ	within the inhalation range					0.68 μ	2.44 μ	5.29 μ	maintained full stability in terms of change of mass	no variation in the thermal behaviour

From patent publication US20120148638A1, “Steroid Solavates” (BREATH LIMITED, priority 2009, published 2012)
